In ChEMBL document CHEMBL5154691, “Discovery of novel verinurad analogs as dual inhibitors of URAT1 and GLUT9 with improved Druggability for the treatment of hyperuricemia” (Eur J Med Chem, 2022):

Experiments:
[1] = Cytotoxicity against human HK-2 cells assessed as reduction in cell viability incubated for 48 hrs by MTT assay; type: toxicity, cell-based
[2] = Cmax in Sprague-Dawley rat at 5 mg/kg, iv measured upto 36 hrs by LC-MS/MS analysis; type: ADME, organism-based; set-up: time < 36 hrs, dose 5 mg/kg, route iv; details: in vivo
[3] = MRT (0 to infinity) in Sprague-Dawley rat at 5 mg/kg, iv by LC-MS/MS analysis; type: ADME, organism-based; details: in vivo
[4] = Inhibition of URAT1 R487K mutant (unknown origin)-mediated 14C-uric acid uptake expressed in HEK293 cells using 14C-uric acid as substrate preincubated for 30 mins followed by substrate addition and measured after 15 mins by liquid scintillation counting analysis; type: cell-based; details: Homo sapiens
[5] = AUC (0 to infinity) in Sprague-Dawley rat at 5 mg/kg, po by LC-MS/MS analysis; type: ADME, organism-based; set-up: time infinity, dose 5 mg/kg, route po; details: in vivo
Mus musculus [6] = assay: Anti-hyperuricemic activity against xanthine and potassium oxonate-induced acute hyperuricemia Kunming mouse model assessed as increase in urine uric acid concentration at 10 mg/kg, po measured for 24 hrs; type: functional
[7] = biological target: T1, Solute carrier family 22 member 6 (Homo sapiens, UniProt Q4U2R8); assay: Inhibition of OAT1 (unknown origin) expressed in HEK293 cells assessed as inhibition of 6-CFL uptake preincubated for 30 mins followed by incubation with 6-CFL and measured after 15 mins by fluorescence based analysis; type: toxicity, cell-based
T1 sequence (Q4U2R8 whole entry): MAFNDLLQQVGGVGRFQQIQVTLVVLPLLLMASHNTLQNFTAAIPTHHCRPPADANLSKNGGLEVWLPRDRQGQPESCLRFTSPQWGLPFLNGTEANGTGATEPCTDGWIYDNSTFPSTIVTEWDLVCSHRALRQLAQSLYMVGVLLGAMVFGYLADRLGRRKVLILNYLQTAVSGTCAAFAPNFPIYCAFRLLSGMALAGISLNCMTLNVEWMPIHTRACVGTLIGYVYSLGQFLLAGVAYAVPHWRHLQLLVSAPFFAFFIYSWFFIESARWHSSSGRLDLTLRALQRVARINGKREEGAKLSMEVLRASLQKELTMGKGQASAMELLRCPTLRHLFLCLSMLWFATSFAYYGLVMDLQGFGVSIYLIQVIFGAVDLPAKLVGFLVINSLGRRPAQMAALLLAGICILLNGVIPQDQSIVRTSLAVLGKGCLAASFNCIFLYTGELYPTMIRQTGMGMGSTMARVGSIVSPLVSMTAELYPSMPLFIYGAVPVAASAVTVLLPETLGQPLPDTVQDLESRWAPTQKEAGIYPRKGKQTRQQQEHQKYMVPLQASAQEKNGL

[8] = MRT (0 to infinity) in Sprague-Dawley rat at 5 mg/kg, po by LC-MS/MS analysis; type: ADME, organism-based; details: in vivo
Mus musculus [9] = assay: Anti-hyperuricemic activity against xanthine and potassium oxonate-induced acute hyperuricemia Kunming mouse model assessed as serum uric acid concentration at 10 mg/kg, po measured after 3 hrs (reference value: 846.22 uM); type: functional
[10] = Half life in Sprague-Dawley rat at 5 mg/kg, iv measured upto 36 hrs by LC-MS/MS analysis; type: ADME, organism-based; details: in vivo
[11] = biological target: T2, Solute carrier family 22 member 12 (Homo sapiens, UniProt Q96S37); assay: Inhibition of URAT1 (unknown origin)-mediated 14C-uric acid uptake expressed in HEK293 cells using 14C-uric acid as substrate preincubated for 30 mins followed by substrate addition and measured after 15 mins by liquid scintillation counting analysis; type: cell-based
T2 sequence (Q96S37 whole entry): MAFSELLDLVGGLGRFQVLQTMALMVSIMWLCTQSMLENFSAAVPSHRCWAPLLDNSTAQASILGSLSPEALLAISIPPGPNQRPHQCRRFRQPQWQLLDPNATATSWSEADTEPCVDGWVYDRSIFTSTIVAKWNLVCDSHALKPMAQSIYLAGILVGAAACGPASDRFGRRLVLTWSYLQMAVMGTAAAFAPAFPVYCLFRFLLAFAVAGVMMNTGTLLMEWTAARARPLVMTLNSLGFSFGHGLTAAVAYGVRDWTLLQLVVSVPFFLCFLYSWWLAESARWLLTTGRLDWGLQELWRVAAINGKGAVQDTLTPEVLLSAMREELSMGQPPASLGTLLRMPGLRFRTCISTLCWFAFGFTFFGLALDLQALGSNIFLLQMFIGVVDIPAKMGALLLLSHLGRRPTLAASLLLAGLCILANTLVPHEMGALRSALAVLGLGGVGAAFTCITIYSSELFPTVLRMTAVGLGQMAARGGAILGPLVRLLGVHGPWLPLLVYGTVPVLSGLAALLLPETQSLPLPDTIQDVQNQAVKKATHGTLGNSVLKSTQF

[12] = biological target: T3, Broad substrate specificity ATP-binding cassette transporter ABCG2 (Homo sapiens, UniProt Q9UNQ0); assay: Inhibition of ABCG2 (unknown origin) expressed in HEK293 cells membrane vesicles assessed as inhibition of ATP-induced 14C-uric acid uptake preincubated for 15 mins followed by incubation with ATP and substrate for 5 mins by liquid scintillation counting analysis; type: toxicity, cell membranes, Membrane vesicle
T3 sequence (Q9UNQ0 whole entry): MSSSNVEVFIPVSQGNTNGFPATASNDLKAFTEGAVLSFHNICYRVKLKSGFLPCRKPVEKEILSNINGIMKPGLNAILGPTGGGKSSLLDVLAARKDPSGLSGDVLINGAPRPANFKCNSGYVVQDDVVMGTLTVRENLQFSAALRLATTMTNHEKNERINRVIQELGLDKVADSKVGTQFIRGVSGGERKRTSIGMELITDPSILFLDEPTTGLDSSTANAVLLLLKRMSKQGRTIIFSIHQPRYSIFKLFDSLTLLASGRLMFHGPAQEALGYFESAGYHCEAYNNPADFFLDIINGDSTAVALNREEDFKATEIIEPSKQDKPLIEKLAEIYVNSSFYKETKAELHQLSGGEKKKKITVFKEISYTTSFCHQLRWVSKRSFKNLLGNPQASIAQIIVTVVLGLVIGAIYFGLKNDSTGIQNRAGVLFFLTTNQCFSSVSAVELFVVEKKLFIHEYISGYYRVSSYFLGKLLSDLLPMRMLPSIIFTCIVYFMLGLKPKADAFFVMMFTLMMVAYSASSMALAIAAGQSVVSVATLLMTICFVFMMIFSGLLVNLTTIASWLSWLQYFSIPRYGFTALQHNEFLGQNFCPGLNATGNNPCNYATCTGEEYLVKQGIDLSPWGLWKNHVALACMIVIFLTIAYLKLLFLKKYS

[13] = Inhibition of URAT1 F365Y mutant (unknown origin)-mediated 14C-uric acid uptake expressed in HEK293 cells using 14C-uric acid as substrate preincubated for 30 mins followed by substrate addition and measured after 15 mins by liquid scintillation counting analysis; type: cell-based; details: Homo sapiens
[14] = Inhibition of URAT1 F241Y mutant (unknown origin)-mediated 14C-uric acid uptake expressed in HEK293 cells using 14C-uric acid as substrate preincubated for 30 mins followed by substrate addition and measured after 15 mins by liquid scintillation counting analysis; type: cell-based; details: Homo sapiens
[15] = AUC (0 to infinity) in Sprague-Dawley rat at 5 mg/kg, iv by LC-MS/MS analysis; type: ADME, organism-based; set-up: time infinity, dose 5 mg/kg, route iv; details: in vivo
[16] = Cytotoxicity against human HK-2 cells assessed as reduction in cell viability incubated for 24 hrs by MTT assay; type: toxicity, cell-based
[17] = Inhibition of URAT1 I481M mutant (unknown origin)-mediated 14C-uric acid uptake expressed in HEK293 cells using 14C-uric acid as substrate preincubated for 30 mins followed by substrate addition and measured after 15 mins by liquid scintillation counting analysis; type: cell-based; details: Homo sapiens
[18] = Inhibition of URAT1 F358Y mutant (unknown origin)-mediated 14C-uric acid uptake expressed in HEK293 cells using 14C-uric acid as substrate preincubated for 30 mins followed by substrate addition and measured after 15 mins by liquid scintillation counting analysis; type: cell-based; details: Homo sapiens
[19] = Tmax in Sprague-Dawley rat at 5 mg/kg, iv measured upto 36 hrs by LC-MS/MS analysis; type: ADME, organism-based; details: in vivo
[20] = Tmax in Sprague-Dawley rat at 5 mg/kg, po measured upto 36 hrs by LC-MS/MS analysis; type: ADME, organism-based; details: in vivo
[21] = Cmax in Sprague-Dawley rat at 5 mg/kg, po measured upto 36 hrs by LC-MS/MS analysis; type: ADME, organism-based; set-up: time < 36 hrs, dose 5 mg/kg, route po; details: in vivo
[22] = Inhibition of URAT1 S35N mutant (unknown origin)-mediated 14C-uric acid uptake expressed in HEK293 cells using 14C-uric acid as substrate preincubated for 30 mins followed by substrate addition and measured after 15 mins by liquid scintillation counting analysis; type: cell-based; details: Homo sapiens
[23] = Half life in Sprague-Dawley rat at 5 mg/kg, po measured upto 36 hrs by LC-MS/MS analysis; type: ADME, organism-based; details: in vivo
[24] = Oral bioavailability in Sprague-Dawley rat at 5 mg/kg measured upto 36 hrs by LC-MS/MS analysis; type: ADME, organism-based; details: in vivo
[25] = Inhibition of URAT1 R477K mutant (unknown origin)-mediated 14C-uric acid uptake expressed in HEK293 cells using 14C-uric acid as substrate preincubated for 30 mins followed by substrate addition and measured after 15 mins by liquid scintillation counting analysis; type: cell-based; details: Homo sapiens

Cmax [2]: 13400 ng/mL
MRT inf [3]: 3.46 h
IC50 [4]: 0.11 µM
AUC(0-inf) [5]: 4130 ng·h/mL
MRT inf [8]: 4.05 h
half-life [10]: 3.49 h
IC50 [11]: 0.17 µM
IC50 [13]: 5.01 µM
IC50 [14]: 2.14 µM
AUC(0-inf) [15]: 19700 ng·h/mL
IC50 [17]: 0.94 µM
IC50 [18]: 0.24 µM
Tmax [19]: 5.4 min
Tmax [20]: 0.46 h
Cmax [21]: 7210 ng/mL
IC50 [22]: 4.21 µM
half-life [23]: 4.01 h
bioavailability [24]: 21.5%
IC50 [25]: 1.24 µM
SMILES: CC(C)(Sc1ccncc1-c1ccc(C#N)c2ccccc12)C(=O)[O-].[Na+]
IC50 at 48 h [1]: 109 µM
Activity (Mus musculus [6]): 2371.02 µM
IC50 [7]: 12.7 µM
Activity (Mus musculus [9]): 625.24 µM
IC50 [12]: 18.7 µM
IC50 at 24 h [16]: 197 µM
